Read-outs that look alike come from different tables or passages of the source.
How the values were obtained:
[1] = system: MES-SA/DX5 (multi-drug resistant human uterine sarcoma cell line); test: In vitro activity against multi-drug resistant cell line MES-SA/DX5; format: cell-based
Method: (§1) The cell lines were maintained in RPMI1640 (GIBCO) supplemented with 10% FCS, 100 units/ml penicillin, 100 ug/ml streptomycin, and 2 mM L-glutamine. The cells were split every third day and diluted to a concentration of 2×10^5 cells/ml one day before experiment. All experiments were performed on exponentially growing cell culture. Cell densities were 2.5×10^4 cells/ml in all experiment.
(§2) A stock solution of Compound (1) and a stock solution of Taxol (positive control) were prepared by dissolving the compound at a concentration of 1 mM in 100% DMSO. Final concentrations were obtained by diluting the stock solution directly into the tissue culture medium. Cells were incubated with varying concentrations of the compounds for 72 hours and the IC50 was determined by MTS (i.e. 3-(4,5,-dimethylthiazol-2-yl)-2,5-diphenyl tetrazolium bromide) assay. IC50 stands for the concentration of compound required to inhibit 50% tumor cell growth.
(§3) In vitro activity was determined in two MDR (Multi Drug Resistant) human cancer cell lines. HL-60/TX1000 was isolated in vitro by subculturing HL-60 in progressively higher concentration of Taxol. HL-60/TX1000 cells over-express mdr-1 mRNA and p-glycoprotein, as determined by western blot and immunofluorescence labeling with antiPGP antibodies. The cell is cross-resistant to Taxol, Vincristine, Adriamycin, Etoposide and Doxorubicin. MES-SA/Dx5 was established in the presence of increasing concentrations of Doxorubicin. […] MES-SA/Dx5 was purchased from ATCC.
(§4) The procedure for culturing the cells and assaying cancer cell growth inhibition were as described in Example 3.
The protocol described in Examples 9-10 was used to assay inhibition by Compounds (2)-(8) on the growth of the multidrug resistant cancer cell line MES-SA/DX5, which is a MDR uterine sarcoma cell line.

[2] = system: DU-145 (human prostate cancer); test: In vitro anti-cancer activity, MTS growth inhibition assay, DU-145; format: cell-based
Method: (§5) The in vitro activity of the compounds was determined in the following seven human cancer cell lines. MDA435 (human breast cancer), MIP101 (human colon cancer), HL-60 (human myeloid leukemia), U937 (human leukemia), p388 (murine leukemia), DU-145 (human prostate cancer), MES-SA (human uterine sarcoma) were obtained from ATCC (American Type of Culture Collection).
as §1, §2
(§6) The protocol described in Examples 9-10 was used to assay inhibition by Compounds (20) (21) (24) and (28) on the growth of cancer cell lines MES-SA (human uterine sarcoma cell line) and DU-145 (human prostate cancer).

[3] = system: MES-SA (human uterine sarcoma); test: In vitro anti-cancer activity, MTS growth inhibition assay, MES-SA; format: cell-based
Method: as §5, §1, §2, §6

MES-SA and DU-145 = test: in vitro activity over MES-SA and DU-145; format: cell-based; details: Homo sapiens; range over both cell lines; read-out: IC50 against MES-SA and DU-145
Method: as §1, §2, §6

[4] = system: MDA435 (human breast cancer); test: In vitro anti-cancer activity, MTS growth inhibition assay, MDA-435; format: cell-based; details: MDA-435 cells, 72 hours
Method: as §5, §1, §2

[5] = system: MIP101 (human colon cancer); test: In vitro anti-cancer activity, MTS growth inhibition assay, MIP-101; format: cell-based; details: MIP-101 cells, 72 hours
Method: as §5, §1, §2

[6] = system: HL-60 (human myeloid leukemia); test: In vitro anti-cancer activity, MTS growth inhibition assay, HL-60; format: cell-based; details: HL-60 cells, 72 hours
Method: as §5, §1, §2

U937 (human leukemia) = test: In vitro anti-cancer activity, MTS growth inhibition assay, U-937; format: cell-based; details: U-937 cells, 72 hours
Method: as §5, §1, §2

p388 (murine leukemia) = test: In vitro anti-cancer activity, MTS growth inhibition assay, p388; format: cell-based; details: Mus musculus, p388 cells, 72 hours
Method: as §5, §1, §2

[7] = system: HL-60/TX1000 (multi-drug resistant human myeloid leukemia cell line); test: In vitro activity against multi-drug resistant cell line HL-60/TX1000; format: cell-based; details: HL60/TX1000, HL-60/TX1000 MDR cells (Table 2)
Method: as §1, §2, §3, §4

[8] = system: MDR cell lines (MES-SA/DX5, HL-60/TX1000); test: in vitro activity over the two MDR cell lines; format: cell-based, human; details: Homo sapiens; range over MES-SA/DX5 and HL-60/TX1000; read-out: IC50 against the MDR cell lines
Method: as §1, §2, §3, §4

[9] = MES-SA/DX5 MDR cells (Table 3, Example 12)
[10] = DU-145 cells (Table 4, Example 13), read-out: IC50 DU-145
[11] = MES-SA cells (Table 4, Example 13), read-out: IC50 MES-SA

SMILES	IC50 [1, 9]	IC50 [2, 10]	IC50 [3, 11]	IC50 (MES-SA and DU-145)	other results
Cc1cc(NC(=O)C(=O)c2cc(Cc3ccc(Cl)cc3)n3ccccc23)sn1 [Compound (2)]	60 nM	–	–	–	–
O=C(Nc1ccc2ncccc2c1)C(=O)c1cc(Cc2ccc(Cl)cc2)n2ccccc12 [Compound (3)]	100 nM	–	–	–	–
Cc1cc(NC(=O)C(=O)c2cc(Cc3ccc(C#N)cc3)n3cc(F)ccc23)sn1 [Compound (4)]	50 nM	–	–	–	–
N#Cc1ccc(Cc2cc(C(=O)C(=O)Nc3ccc4ncccc4c3)c3ccccn23)cc1 [Compound (5)]	100 nM	–	–	–	–
Cc1cc(NC(=O)C(=O)c2cc(Cc3ccccc3)n3ccccc23)sn1 [Compound (6)]	50 nM	–	–	–	–
Cc1cc(NC(=O)C(=O)c2cc(Cc3ccc(F)cc3)n3ccccc23)sn1 [Compound (7)]	50 nM	–	–	–	–
COc1ccc(Cc2cc(C(=O)C(=O)Nc3cc(C)ns3)c3ccccn23)cc1 [Compound (8)]	100 nM	–	–	–	–
Cc1cc(NC(=O)C(=O)c2cc(Oc3ccc(C#N)cc3)n3ccccc23)sn1 [Compound (20), 2-[3-(4-Cyano-phenoxy)-indolizin-1-yl]-N-(3-methyl-isothiazol-5-yl)-2-oxo-acetamide]	–	50 nM	50 nM	50 to 100 nM	–
Cc1cc(NC(=O)C(=O)c2cc(N(C)c3ccc(C#N)cc3)n3ccccc23)sn1 [Compound (21), 2-{3-[(4-Cyano-phenyl)-methyl-amino]-indolizin-1-yl}-N-(3-methyl-isothiazol-5-yl)-2-oxo-acetamide]	–	50 nM	50 nM	50 to 100 nM	–
Cc1ccc2c(C(=O)C(=O)Nc3cc(C)ns3)cc(Cc3ccc(C#N)cc3)n2c1 [Compound (24), 2-[3-(4-Cyano-benzyl)-6-methyl-indolizin-1-yl]-N-(3-methyl-isothiazol-5-yl)-2-oxo-acetamide]	–	50 nM	50 nM	50 to 100 nM	–
Cc1cc(NC(=O)C(=O)c2cc(Cc3ccc(C#N)s3)n3ccccc23)sn1 [Compound (28), 2-[3-(5-cyano-thiophen-2-ylmethyl)-indolizin-1-yl]-N-(3-methyl-isothiazol-5-yl)-2-oxo-acetamide]	–	100 nM	100 nM	50 to 100 nM	–
CC(=O)O[C@H]1C(=O)[C@@]2(C)[C@H]([C@H](OC(=O)c3ccccc3)[C@]3(O)C[C@H](OC(=O)[C@H](O)[C@@H](NC(=O)c4ccccc4)c4ccccc4)C(C)=C1C3(C)C)[C@]1(OC(C)=O)CO[C@@H]1C[C@@H]2O [Taxol, reference compound]	5000 nM	–	–	–	IC50 [4]: 5 nM; IC50 [5]: 500 nM; IC50 [6]: 5 nM; IC50 (U937 (human leukemia)): 5 nM; IC50 (p388 (murine leukemia)): 10 nM; IC50 ([2]; DU-145 cells, 72 hours, MTS assay (Table 1), read-out: IC50): 5 nM; IC50 ([3]; MES-SA cells, 72 hours, MTS assay (Table 1), read-out: IC50): 5 nM; IC50 [7]: 5000 nM; IC50 [8]: 1000 to 5000 nM
CC[C@]1(O)C[C@H]2CN(CCc3c([nH]c4ccccc34)[C@@](C(=O)OC)(c3cc4c(cc3OC)N(C=O)[C@H]3[C@@](O)(C(=O)OC)[C@H](OC(C)=O)[C@]5(CC)C=CCN6CC[C@]43[C@@H]65)C2)C1 [Vincristine]	–	–	–	–	IC50 [7]: 5000 nM; IC50 ([1]; MES-SA/Dx5, MES-SA/DX-5 MDR cells (Table 2)): 1000 nM; IC50 [8]: 1000 to 5000 nM
